Reference: the NIST ThermoML archive (doi:10.1021/je060271a)

Conditions: 303.14 K, Liquid, Vibrating tube method

CCCCCCC(=O)OCC(COC(=O)CCCCCC)(COC(=O)CCCCCC)COC(=O)CCCCCC [pentaerythritol tetraheptanoate]
Conditions | mass density [kg/m3]
163.7 kPa | 970.9
201.8 kPa | 970.9
226 kPa | 970.8
241.8 kPa | 970.9
250.8 kPa | 970.9
258.8 kPa | 970.8
267.9 kPa | 970.9
279.3 kPa | 971
289.8 kPa | 970.8
301.4 kPa | 970.9
315.8 kPa | 970.9
328.9 kPa | 970.9
342.6 kPa | 970.8
354.2 kPa | 971
366.8 kPa | 970.9
380 kPa | 971
397.2 kPa | 971
412.5 kPa | 971
432.5 kPa | 970.9
450.7 kPa | 970.9
470.3 kPa | 971
496.8 kPa | 971
520.4 kPa | 971.1
547 kPa | 971.1
581.4 kPa | 970.9
613 kPa | 971.2
645.8 kPa | 971.1
676.4 kPa | 971.1
706.7 kPa | 971.2
734.4 kPa | 971.2
762.1 kPa | 971.2
785 kPa | 971.2
807.4 kPa | 971.1
827.2 kPa | 971.2
847.6 kPa | 971.2
869.1 kPa | 971.2
895.8 kPa | 971.3
919.6 kPa | 971.2
944.3 kPa | 971.2
969.8 kPa | 971.3
1002.7 kPa | 971.3
1031.7 kPa | 971.4
1063.1 kPa | 971.4
1101.5 kPa | 971.3
1163.5 kPa | 971.4
1217.5 kPa | 971.4
1278.3 kPa | 971.6
1312.2 kPa | 971.5
1337.9 kPa | 971.6
1347.4 kPa | 971.5
1357.1 kPa | 971.5
1376.9 kPa | 971.5
1461 kPa | 971.6
1578.5 kPa | 971.7
1661.5 kPa | 971.6
1692.7 kPa | 971.7
1725.9 kPa | 971.9
1765.8 kPa | 971.8
1800.2 kPa | 971.8
1836.8 kPa | 971.9
1873.8 kPa | 971.9
1919.1 kPa | 972
1958.5 kPa | 971.8
2006.7 kPa | 971.9
2049 kPa | 972.1
2092.9 kPa | 971.9
2137.7 kPa | 972.1
2193.4 kPa | 972
2240.2 kPa | 972.1
2293.3 kPa | 972.3
2315.9 kPa | 972.1
2329.2 kPa | 972.2
2344.7 kPa | 972.2
2358.2 kPa | 972.3
2371.9 kPa | 972.1
2388.4 kPa | 972.3
2402.1 kPa | 972.3
2416.3 kPa | 972.3
2433 kPa | 972.3
2447.2 kPa | 972.3
2464.4 kPa | 972.2
2478.9 kPa | 972.3
2494 kPa | 972.2
2508.9 kPa | 972.2
2528 kPa | 972.2
2539.8 kPa | 972.2
2558.1 kPa | 972.4
2573.1 kPa | 972.3
2592.1 kPa | 972.3
2607.7 kPa | 972.4
2623.3 kPa | 972.3
2639.6 kPa | 972.3
2658.8 kPa | 972.5
2675.1 kPa | 972.3
2691.8 kPa | 972.4
2711.7 kPa | 972.4
2728.4 kPa | 972.4
2745.4 kPa | 972.5
2766 kPa | 972.5
2783.2 kPa | 972.6
2800.7 kPa | 972.5
2821.5 kPa | 972.6
2839.7 kPa | 972.5
2857.4 kPa | 972.6
2879.2 kPa | 972.5
2897.6 kPa | 972.5
2916.3 kPa | 972.5
2935.4 kPa | 972.5
2957.6 kPa | 972.5
2976.7 kPa | 972.5
2995.9 kPa | 972.5
3019.1 kPa | 972.7
